Among the data in ChEMBL document CHEMBL5120940, “Indolactam Dipeptides as Nanomolar Gli Inhibitors” (ACS Med Chem Lett, 2022) are IC50, Activity and inhibition values, retold here.

What all share (assay type): cell-based
Assay [1] is described as follows: Inhibition of GLI in SAG induced mouse Shh Light II cells assessed as residual Smo-dependent Gli luciferase activity in starvation medium incubated for 30 hrs by dual luciferase assay.
For another assay, the system named is Shh Light II. Nature of the assay: Inhibition of GLI in SAG induced mouse Shh Light II cells assessed as residual Smo-dependent Gli luciferase activity in starvation medium at 100 nM incubated for 30 hrs by dual luciferase assay.
The test system of the next assay is Sufu-KO-LIGHT. Nature of the assay: Inhibition of GLI in SAG induced mouse Sufu-KO-LIGHT cells assessed as residual Smo-independent Gli luciferase activity in starvation medium at 100 nM incubated for 30 hrs by dual luciferase assay.
Assay [2] can be described thus: Inhibition of GLI in SAG induced mouse Sufu-KO-LIGHT cells assessed as residual Smo-independent Gli luciferase activity in starvation medium incubated for 30 hrs by dual luciferase assay.
Assay [3] in a line: Inhibition of GLI in SAG induced mouse C3H10T1/2 cells assessed reduction Gli-dependent differentiation by measuring ALP activity incubated for 48 hrs by chemiluminescence assay. The conditions noted are these: C3H 10T1/2, 48 h.
The subject of another assay is NIH/3T3. Nature of the assay: Inhibition of GLI in mouse NIH/3T3 cells assessed as reduction in CMV-driven firefly luciferase activity in starvation medium at 100 nM incubated for 30 hrs by Bright-Glo luciferase assay.
The subject of the next assay is ASZ001. Description: Inhibition of GLI in mouse ASZ001 cells assessed as reduction in cell viability in starvation medium at 1.5 uM incubated for 48 hrs by CellTiter assay relative to control.
The nature of assay [4]: Inhibition of GLI in mouse ASZ001 cells assessed as reduction in cell viability in starvation medium incubated for 48 hrs by CellTiter assay. The conditions noted are these: ASZ001, 48 h.

Active and inactive are the calls of the source. The rule behind the calls is not given here. Where only a bound is given, the exact number is not on record here.

The term IC50 denotes the point on the concentration scale where inhibition reaches its midpoint. On to `CC(C)[C@H]1C(=O)N[C@H](CO)Cc2cn(C(C)C)c3cccc(c23)N1C`, for which the 50% inhibitory concentration (IC50) was found to be 309 nM in assay [1] and 464 nM in assay [2]. Moreover, the Activity was found to be 96% with Shh Light II and 78% in the assay on Sufu-KO-LIGHT.
On the same counts, the results for `C=CC(C)(C)c1ccc2c3c(c[nH]c13)C[C@@H](CO)NC(=O)[C@H](C(C)C)N2C` [PENDOLMYCIN] are over 5000 nM, over 5000 nM, 60% and 46%.
As for `CC(C)[C@H]1C(=O)N[C@@H](CO)Cc2c[nH]c3cccc(c23)N1C`, the IC50 in assay [1] is over 5000 nM; in assay [2], 1920 nM; in assay [3], over 5000 nM. Further, the Activity in the assay on Shh Light II was 100%; with Sufu-KO-LIGHT it was 78%.
One may read the inhibition as the change of the read-out against control, counted positive when it falls. Regarding `CC(C)[C@H]1C(=O)N[C@H](CO)Cc2c[nH]c3cccc(c23)N1C` [INDOLACTUM], the concentration for half-maximal inhibition (IC50) in assay [1] came out at 33 nM; in assay [2], 13 nM; in assay [3] it was 171 nM. The figures for the Activity with Shh Light II and with Sufu-KO-LIGHT were 68% and 39%, respectively. In the assay on NIH/3T3, the outcome was Active. Besides, the inhibition with ASZ001 came out at 62%.
In the case of `CC(C)[C@H]1C(=O)N[C@H](CO)Cc2cc(NC(=O)/C=C/C=C/c3ccc(C(F)(F)F)cc3)ccc2N1C` (stereo in doubt), the IC50 in assay [4] was found to be 0.16 nM.
With `CC(=O)n1cc2c3c(cccc31)N(C)[C@@H](C(C)C)C(=O)N[C@H](CO)C2`, the IC50 was found to be 195 nM in assay [1] and 655 nM in assay [2]. In addition, the Activity in the assay with Shh Light II was 73%; in the assay on Sufu-KO-LIGHT, 67%.
In the case of `CC(C)[C@H]1C(=O)N[C@H](CO)Cc2c[nH]c3c(Br)ccc(c23)N1C`, the figures for the concentration for half-maximal inhibition (IC50) in assay [1] and in assay [2] were 1280 nM and 264 nM, respectively. The Activity with Shh Light II is 70%; in the assay with Sufu-KO-LIGHT, 23%.
With `CS(=O)(=O)c1ccc(C(=O)Nc2ccc(Cl)c(-c3ccccn3)c2)c(Cl)c1` [VISMODEGIB], the concentration for half-maximal inhibition (IC50) in assay [1] is 37 nM; in assay [4] it was 2 nM; in assay [2] it was over 5000 nM; in assay [3], 58 nM. For the same compound, the figures for the Activity in the assay with Shh Light II and in the assay with Sufu-KO-LIGHT were 43% and 96%, respectively.
As to `CCC(C)[C@H]1C(=O)N[C@H](CO)Cc2c[nH]c3cccc(c23)N1C` (some centres not stated), the figures for the IC50 in assay [1], in assay [2] and in assay [3] were 33 nM, 6.8 nM and 30 nM, respectively. In addition, the Activity in the assay on Shh Light II came out at 53%; in the assay on Sufu-KO-LIGHT, 36%. Also, the outcome with NIH/3T3 was Active.
As to `COC[C@@H]1Cc2cn(C)c3cccc(c23)N(C)[C@@H](C(C)C)C(=O)N1`, the values for the IC50 in assay [1] and in assay [2] were 478 nM and 1820 nM, respectively. For the same compound, the Activity with Shh Light II was 86%; in the assay on Sufu-KO-LIGHT, 69%.
`CC(C)[C@H]1C(=O)N[C@H](CO)Cc2cn(C)c3cccc(c23)N1C`: the figures for the IC50 in assay [1], in assay [2] and in assay [3] were 69 nM, 20 nM and 498 nM, respectively. The Activity in the assay with Shh Light II was 66%; with Sufu-KO-LIGHT, 42%. The result in the assay with NIH/3T3 was Active.
With `CCCCCCn1cc2c3c(cccc31)N(C)[C@@H](C(C)C)C(=O)N[C@H](CO)C2`, the IC50 in assay [1] was 113 nM; in assay [4], 0.5 nM; in assay [2] it was 7.9 nM; in assay [3] it was 27 nM. Further, the Activity came out at 83% in the assay with Shh Light II and 25% with Sufu-KO-LIGHT. Moreover, the outcome in the assay on NIH/3T3 was Active. Also, the inhibition with ASZ001 is 38%.
Turning to `COC(=O)[C@@H]1Cc2c[nH]c3cccc(c23)N(C)[C@@H](C(C)C)C(=O)N1`, the half-maximal inhibitory concentration (IC50) in assay [1] amounted to 3460 nM; in assay [2] it was 77 nM. Moreover, the Activity came out at 99% in the assay on Shh Light II and 67% in the assay on Sufu-KO-LIGHT.
Take `C=C[C@@](C)(CCC=C(C)C)c1ccc2c3c(c[nH]c13)C[C@@H](CO)NC(=O)[C@H](C(C)C)N2C`: the half-inhibitory concentration (IC50) in assay [1] and in assay [2] was over 5000 nM in each case. Besides, the Activity in the assay on Shh Light II is 90%; with Sufu-KO-LIGHT it was 47%.
